Patent publication US12251383B2, “Methods and compositions for KRAS inhibitors” (The Board of Regents of the University of Texas System, priority 2019, dated 2025)
“Also recorded” adds a separate entry of the source.

How the values were obtained:
[1] = target: Rap1B (Homo sapiens, UniProt P61224); test: MST binding, control Rap1B; settings: control small GTPase
Description: (§1) FIGS. 1A-1D show representative data for the predicted binding mode and measured affinity of disclosed compound 11 to KRAS. (FIG. 1A) Structure of the catalytic domain of KRAS used for the virtual screening. Lobe1 (residues 1-86) and lobe2 (residues 87-166) are highlighted in different colors, as well as switches 1 (residues 30-40) and 2 (residues 60-75). The location of the target allosteric pocket p1 is indicated. (FIG. 1B) Chemical structure of compound 11. (FIG. 1C) Predicted binding pose of compound 11, with the key residues that make polar or vdW contacts with the ligand labeled. (FIG. 1D) Microscale thermophoresis (MST) experiments indicating direct binding of compound 11 to KRAS, along with dissociation constants (KD) derived from the curves. Changes in fluorescence upon titration of […] KRAS with increasing concentration of compound are shown: KRAS^WT (red), KRAS^G12C (green), KRAS^G12D (purple) and KRAS^Q61M (blue), each bound to the non-hydrolyzable GTP analogue, guanylyl imidodiphosphate (GNP). The same experiments indicated no binding to GDP-bound KRAS^G12D and KRAS^WT as well as Rap1B, which was used as control. […]

[2] = target: KRAS^G12C in the GTP state (Homo sapiens, UniProt P01116, G12C); test: MST binding, GTP-state KRAS G12C
KRAS^G12C in the GTP state, sequence (P01116 1-188 isoform P01116-2 G12C): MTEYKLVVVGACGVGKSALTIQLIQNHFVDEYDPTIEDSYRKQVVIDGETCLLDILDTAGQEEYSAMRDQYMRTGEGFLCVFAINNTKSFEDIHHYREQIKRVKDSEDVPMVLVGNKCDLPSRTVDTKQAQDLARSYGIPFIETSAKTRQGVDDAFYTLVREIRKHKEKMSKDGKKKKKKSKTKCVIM
Description: as §1

[3] = tested on: SKLU-1 (KRAS^G12D) lung cancer cells; test: Cell proliferation (CyQuant), SKLU-1; format: cell-based; settings: 72 h
Protocol: Cell proliferation. Potential effect of the ligands on cancer cell proliferation was tested in three lung cancer cells: SKLU-1, H1975 and H522. Cells were plated at ˜1,000 cell per well in a 96-well plate and maintained in full serum media with or without compound at 37° C. for 72 h changing the media with the compound every 24 h. Media with compound was prepared by serial dilution at concentrations indicated. Then cells were washed with PBS and frozen at −80° C. for a minimum of 24 h. Plates were thawed and CyQuant™ dye (in lysis buffer provided in the CyQuant™ cell proliferation assay kit, Invitrogen™) was added, and after a five-minute incubation, fluorescence (excitation: 480 nm emission: 520 nm) was measured with a Tecan Infinite M200 plate reader.

[4] = target: GTPKRAS^WT (Homo sapiens, UniProt P01116); test: Microscale thermophoresis (MST) binding, GTP-state (GNP-bound) KRAS WT
GTPKRAS^WT, sequence (P01116 1-188 isoform P01116-2): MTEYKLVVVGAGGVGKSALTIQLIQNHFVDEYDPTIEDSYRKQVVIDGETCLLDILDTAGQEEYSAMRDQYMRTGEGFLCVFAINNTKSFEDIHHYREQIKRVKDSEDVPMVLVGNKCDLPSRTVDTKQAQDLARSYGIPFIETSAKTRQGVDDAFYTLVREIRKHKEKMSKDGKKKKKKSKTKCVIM
Description: as §1

[5] = tested on: HRAS^G12V; test: Cell signaling (Western) in BHK cells expressing HRAS G12V; format: cell-based, hamster
Protocol: Cell signaling. The inhibitory potential of compounds was tested in monoclonal Baby Hamster Kidney (BHK) cell lines stably expressing monomeric green fluorescence protein (mGFP)-tagged KRAS^G12D, K-Ras^G12V and HRAS^G12V. Cells were cultured in Dulbecco's Modified Eagle Medium (DMEM, Hyclone) supplemented with 10% v/v bovine calf serum and incubated with compound or vehicle (DMSO) for 3 h without serum. Cells were then harvested in lysis buffer (50 mM Tris (pH 7.5), 75 mM NaCl, 25 mM NaF, 5 mM MgCl2, 5 mM EGTA, 1 mM dithiothreitol, 100 μM NaVO4, 1% Nonidet P40 plus protease inhibitors) and subjected to Western analysis controlling protein loading by BCA (bicinchoninic acid) assay. Lysates were resolved with Bio-Rad polyacrylamide TGX 10% gel, transferred to polyvinylidene fluoride (PVDF) membrane and immunoblotted using pan-AKT (2920S), GFP (2956S), pAKT^S473 (4060L), p-cRaf^S338 (9427S), p-ERK^T202/Y204 (4370L), ERK1/2 (4695S) or β-actin antibodies (Cell Signaling Technology). IC50 values were calculated with Prism 4-parameter fit.

Rap1B, sequence (P61224 whole entry, species assumed, the tested form may be a part): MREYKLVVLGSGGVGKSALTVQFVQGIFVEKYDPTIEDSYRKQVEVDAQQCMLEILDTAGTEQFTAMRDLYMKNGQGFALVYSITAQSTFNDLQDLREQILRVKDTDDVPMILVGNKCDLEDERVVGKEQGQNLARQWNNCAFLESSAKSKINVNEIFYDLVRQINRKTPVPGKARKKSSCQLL

Cc1nn2c(N3CCN(CCO)CC3)cc(-c3ccccc3)nc2c1-c1ccccc1 [Compound 11, 2-[4-(8-methyl-3,9-diphenyl-2,6,7-triazabicyclo[4.3.0]nona-2,4,7,9-tetraen-5-yl)piperazin-1-yl]ethanol]
binding (in words) [1]: no binding
Kd [2]: 400 to 700 nM
sensitivity of proliferation [3]: slightly more sensitive; also recorded: especially responsive
Kd [4]: ~300 nM
effect on p-AKT levels [5]: no major effect
effect on p-ERK levels [5]: not and no significant effect
effect on p-cRaf levels [5]: not and no significant effect
